# Measured values reported in PubChem BioAssay AID1508612.
# Assay: passive permeability, PAMPA, ADME assay (AID 1508612)
# Conditions: pH 7.4, 30.0 min, 50.0 µM
row,SMILES,Papp [×10⁻⁶ cm/s]
1,COc1ccccc1C(=O)Nc1ccccc1C(=O)Nc1cccc(S(=O)(=O)C(F)(F)F)c1,7.6
2,CC(C)n1cc(-c2ccc(Oc3ccccc3)cc2)c2c(N)ncnc21,> 1000
3,CC(C)C(=O)N1CCc2ccc(OCc3nc(C(=O)N4CCCC4)co3)cc2C1c1cccc(F)c1 (stereo unspecified),188
4,Cn1c(CN2CCCC2)nc2cc(NC(=O)COc3ccc(Cl)cc3)ccc21,> 1000
5,CCCc1nnc(NC(=O)c2nc(S(=O)(=O)Cc3ccc(C)cc3)ncc2Cl)s1,89.4
6,CCOC(=O)c1[nH]c(C)c(CCC(=O)N2CCN(c3cccc(C)c3C)CC2)c1C,> 1000
7,CCC[C@H](NC(=O)C(C#N)=Cc1cccc(Br)n1)c1ccccc1,> 1000
8,O=C1Nc2ccccc2/C1=C\c1ccc([N+](=O)[O-])cc1,455
9,Cc1cc(N[S+](=O)([O-])c2ccc(NC(=O)Cc3ccc(F)c(F)c3)cc2)no1,6.43
10,CNc1oc(-c2cccc(Cl)c2Cl)nc1C#N,505
11,Fc1ccc(Nc2nc(-c3ccccc3)cc(-c3ccncc3)n2)cc1F,< 1
12,CCC(=O)N1CCN(c2ccc(-n3c(=O)ccc4cnc5ccc(-c6cnc7ccccc7c6)cc5c43)cc2C(F)(F)F)CC1,178
13,Cc1ccc(O)c(-c2cc(-c3ccccc3C)[nH]n2)c1,511
14,COc1cc(Nc2nc(-c3ccncc3)nc3ccccc23)ccc1N1CCN(C)CC1,> 1000
15,O=C(NCCN1CCOCC1)C1CC(=O)N(c2n[nH]c3cc(Br)ccc23)C1 (stereo unspecified),1.8
16,COc1nccc(-c2nc(Nc3ccc(F)c(F)c3)c3ccccc3n2)c1Cl,30.3
17,CCc1ccc(-n2nc(C)c3c2NC(=O)CSC3c2ccccc2C)cc1 (stereo unspecified),707
18,O=C(Nc1ccccc1)C1CCN(c2nc(-c3ccc(Br)cc3)cs2)CC1,48.6
19,CCc1cccc(NC(=O)CSc2nc3ccccc3nc2N2CCCCC2)c1,322
20,C[C@H]1CN(C(=O)c2nn(C)c3ccccc23)C[C@@H]1c1nc(-c2cccnc2)no1,982
21,CS(=O)(=O)c1ccc2nc(NC(=O)C3CC3)sc2c1,106
22,COc1ccc(Cn2c(C(=O)O)c(CNCc3ccco3)c3ccc(C)cc32)cc1,654

row,SMILES,Papp [×10⁻⁶ cm/s]
1,COc1ccc2c3c([nH]c2c1)C1CC2C(CC(O)C(OC)C2CO)CN1CC3 (stereo unspecified),3.2
2,O=C1Nc2ccccc2/C1=C\c1ccc(O)cc1,755
3,CCCn1cnc2cc(NCc3ccc(OC)cc3OC)ccc21,> 1000
4,Nc1nc2c(s1)C(c1ccc(F)cc1F)CC(=O)N2 (stereo unspecified),181
5,COc1ccc(CCNC(=O)c2cc3c(=O)n4ccccc4nc3n(CCCN3CCOCC3)c2=N)cc1,394
6,COc1ccc(-n2c(C)cc(-c3nnc4n3CCCCC4)c2C)cc1,488
7,COc1ccc(-n2nc(C3CCN(C(=O)C4CC4)CC3)[nH]c2=O)cc1,148
8,COc1ccc(CN(C2CCCCC2C)S(=O)(=O)c2ccc(S(=O)(=O)N(C)C)cc2)cc1OC (stereo unspecified),18.8
9,COc1ccccc1N1CCN(CCN(C(=O)c2ccc(F)cc2)c2ccccn2)CC1,> 1000
10,COc1c(O)ccc2c1CN1CCc3cc4c(cc3[C@@H]1C2)OCO4,> 1000
11,COc1ccc(NC(=O)c2c(C)cccc2C)cc1[S+](=O)([O-])N1CCCCC1,548
12,Clc1cccc(Nc2nc(-c3ccncc3)nc3ccccc23)c1,250
13,Cc1ccc(S(=O)(=O)Nc2cnccc2C(=O)Nc2nc(-c3nc4ccccc4s3)cs2)cc1,740
14,Cc1cccc(N2CCN(C(=O)c3ccc4c(c3)C(O)CCCCCN4C)CC2)c1 (stereo unspecified),< 1
15,Cc1cc(C)c(C(=O)Nc2cccc([S+](=O)([O-])N3CCCCCC3)c2)[nH]1,990
16,Cc1ccc(S(=O)(=O)Nc2ccccc2C(=O)Nc2ncc(-c3ccccc3)s2)cc1,125
17,O=c1[nH]cnc2c1ccn2C1OC(CO)C(O)C1O (stereo unspecified),3.01
18,CC(C)c1ccccc1-c1ncc(F)c(NC(C)(C)c2ccc(-n3ccnn3)cc2)n1,672
19,O=C(Nc1ccc(F)cc1F)c1cc(-c2ccc[nH]2)n[nH]1,103
20,CC(C)N(CCCNC(=O)Nc1ccc(C(C)(C)C)cc1)C[C@H]1O[C@@H](n2cc(Br)c3c(N)ncnc32)[C@H](O)[C@H]1O,472
21,CC(C)c1ccccc1-c1ncc(F)c(NC2(c3ccc(-c4cccnc4)cc3)CC2)n1,> 1000
22,Cc1cc(Nc2nc(-c3ccncc3)nc3ccccc23)n[nH]1,721

row,SMILES,Papp [×10⁻⁶ cm/s]
1,O=C(NC1CC1)c1ccc(CSCc2ccccc2Cl)o1,758
2,CCn1nc(C2CCN(C(=O)CCO)CC2)nc1-c1cnc(N)c(-c2nnc(C(C)(C)C)o2)n1,188
3,Cc1cc(C)c(C(=O)Nc2cccc([S+](=O)([O-])N3CCCCC3)c2)[nH]1,936
4,CCOC(=O)c1ccc2c(c1)c(C(C)=O)c(C)n2-c1ccc(OC)cc1,> 1000
5,Cc1ccc(NC(=O)N2CCN(c3nc(N)nc4sc(-c5cccnc5)nc34)CC2)cc1,577
6,CC(C)CNc1ncnc2onc(-c3ccc(Cl)cc3)c12,> 1000
7,COc1cc(NS(=O)(=O)c2ccc(C)cc2)c(C(=O)Nc2nc(-c3ccccc3)cs2)cc1OC,325
8,CCn1cc(C(=O)N2CCN(c3cccc(Cl)c3)CC2)c2cc(OC)c(OC)cc2c1=O,833
9,COc1ccc2c(c1)CCc1c-2n[nH]c1C(=O)N1CCc2c(nc3cc(-c4ccccc4)[nH]n3c2=O)C1,15.8
10,Cc1nn2c(c1-c1ccccc1-c1ccccc1)N(CC1CC1)CCC2,> 1000
11,Cc1nc(N)nc2ccccc12,69.7
12,O=S(=O)(Nc1nccs1)c1ccc(NCc2ccccc2O)cc1,1.15
13,COc1ccc(NC(=O)c2[nH]c(C)c(C(C)=O)c2C)cc1[S+](=O)([O-])Nc1ccccc1C#N,71
14,NC1CCN(C(=O)C2CCCN(c3nc(-c4ccccc4)nc4c3CCC4)C2)CC1 (stereo unspecified),475
15,CCCCC1CCC(C(=O)Nc2ccc(S(=O)(=O)Nc3nccs3)cc2)CC1 (stereo unspecified),587
16,CNS(=O)(=O)c1cc(-c2nn3c(C)nnc3c3ccccc23)ccc1C,146
17,Cc1cc(C)nc(NC(=S)N2CCN(c3ccncc3)CC2)c1,450
18,CNC(=O)c1nn(C)c2c1C(C)(C)Cc1cnc(Nc3ccc(N4CCN(C)CC4)cc3)nc1-2,> 1000
19,COC(=O)C1=C(C)NC(C)=C(C(=O)OCCCN2CCC(c3ccccc3)(c3ccccc3)CC2)C1c1cccc([N+](=O)[O-])c1 (stereo unspecified),34.1
20,Cc1csc2nc(-c3cccc(NC(=O)c4ccccc4Cl)c3)cn12,651
21,CCOC(=O)Nc1cc(-c2ccc(C)c(NS(C)(=O)=O)c2)nn2c(C)nnc12,278
22,CC[C@H]1CN2CCC3CC(OC)C(OC)CC3[C@@H]2C[C@@H]1C[C@H]1NCCC2=C1CC(OC)=C(O)C2 (stereo partly specified),153

row,SMILES,Papp [×10⁻⁶ cm/s]
1,COc1cc2c(Oc3ccc(-c4cnc(Nc5ccc(F)cc5)n(C)c4=O)cc3F)ccnc2cc1OCCCN1CCOCC1,92.9
2,COc1ccc(-c2nc(-c3c(C)noc3C)cc3c2cc(C)n3CCN(C)C)cc1OC,> 1000
3,FC(F)(F)Oc1cccc(Nc2nc(-c3ccncc3)nc3ccccc23)c1,226
4,O=[N+]([O-])c1cccc(CNc2ccc(S(=O)(=O)Nc3nccs3)cc2)c1O,28.6
5,NC(=O)C1CCN(c2nc(-c3ccc(Oc4ccccc4)cc3)cs2)CC1,953
6,O=c1cc(/C=C/c2c(F)cccc2Cl)[nH]c2ccccc12,205
7,Cc1ccc(Cl)cc1NS(=O)(=O)c1cc2c(cc1F)NC(=O)CC2,581
8,CCN1CCCC1CNC(=O)c1cc(S(=O)(=O)CC)c(N)cc1OC (stereo unspecified),< 1
9,Clc1ccccc1-c1nc(NCc2ccc(-c3cccnc3)cc2)c2ccccc2n1,944
10,CCc1nnc(NC(=O)c2nc(S(=O)(=O)Cc3ccc(C)cc3)ncc2Cl)s1,32.9
11,O=C(Nc1ccc([S+](=O)([O-])Nc2nccs2)cc1)c1ncn[nH]1,< 1
12,O=C(Nc1nc(-c2ccccc2)cs1)c1ccccc1-n1cnnn1,< 1
13,CCCCCCCCc1ccc(CCC(N)(CO)CO)cc1,5.3
14,O=C(NC1CCN(c2cc(-c3ccc(Cl)cc3)[nH]n2)C1)c1ccccc1 (stereo unspecified),706
15,CN(C)CCN1C(=O)c2cccc3cc(N)cc(c23)C1=O,339
16,CCOc1ccc(CCNC(=O)c2cc3sccc3n2CCN2CCN(C)CC2)cc1OCC,> 1000
17,COc1cccc2nc(-c3cccs3)nc(NN3C(=O)C=C(C)C3=O)c12,353
18,COC(=O)c1cc(Cl)ccc1NC(=O)CSc1ncc(S(=O)(=O)c2ccc(Br)cc2)c(=O)[nH]1,68.7
19,Cc1ncc2c(c1CNC(=O)Cn1cnc3ccccc3c1=O)CCNC2,59.6
20,Cc1ccc(-n2ncc3c(NCCCN(C)C)ncnc32)cc1Cl,> 1000
21,Cc1cc(NC(=O)c2ccc(NC(=O)Cc3ccc(Cl)c(Cl)c3)cc2)no1,> 1000
22,CC1=C(C(=O)Nc2nnc(-c3ccccc3)s2)C(c2nn(C)cc2Cl)N=C(Nc2nc3ccccc3o2)N1 (stereo unspecified),23.1

row,SMILES,Papp [×10⁻⁶ cm/s]
1,CN(C)c1cccc(-c2nnc(N3CCC(C(N)=O)CC3)s2)c1,119
2,Cc1ccc(S(=O)(=O)Nc2cnccc2C(=O)Nc2nc(-c3cccc(F)c3)cs2)cc1,153
3,CC(C)CC(C)NC(=O)c1noc(-c2ccc[nH]c2=O)n1 (stereo unspecified),16.6
4,Cc1ccnc(NC(=S)N2CCN(c3ccc(Cl)cc3Cl)CC2)c1,868
5,Cc1ccc(S(=O)(=O)Nc2ccccc2C(=O)Nc2cnc(-c3ccccc3)cn2)cc1,> 1000
6,Cc1ccc(NS(=O)(=O)c2ccc3c(c2)NC(=O)CO3)cc1C,706
7,Cc1cccc(N(C)c2nc3ccccc3c3nnc(C)n23)c1,> 1000
8,CCCCOC(=O)c1ccnc2cc(C(OCCN3CCCCC3)c3ccccc3Cl)sc12 (stereo unspecified),828
9,CCOC(=O)NNc1ccc(N(CC)CC(C)O)nn1 (stereo unspecified),10.7
10,Oc1ccc(Nc2nc(-c3ccncc3)nc3ccccc23)cc1F,664
11,CCCCOc1ccc(CC(=O)NO)cc1,133
12,Cc1ccc(NC(=O)c2ccncc2NS(=O)(=O)c2ccc(C)cc2)cc1,245
13,Cc1ccccc1C(=O)N1CCC(C(=O)N2CCC(N3Cc4ccccc4C3=O)CC2)CC1,50.8
14,NC(=O)C1CCN(c2ncc(Br)cn2)CC1,61.5
15,Cc1c(-c2cccc3c(CCCOc4cccc5ccccc45)c(C(=O)O)n(Cc4cccnc4)c23)c(COc2ccc(N3CCN([S+](=O)([O-])N(C)C)CC3)cc2)nn1C,244
16,O=C(NC1CCCc2c1[nH]c1c(Cl)cccc21)c1ccc2c(c1)OCO2 (stereo unspecified),51
17,O=C(Nc1ccc(S(=O)(=O)Nc2nc(-c3ccccc3)cs2)cc1)c1ccc2ccccc2c1,< 1
18,COc1ccc(NC(C)=O)cc1S(=O)(=O)Nc1ccc(Br)cc1,627
